Tested on: PANK2−/− IMR32 cells
Assay: Coenzyme A assay in PANK2 silenced cells (LC-MS quantification of free CoA)
Assay type: cell-based, human
Details: fold increase in CoA levels relative to controls, treated twice, 24 h + 24 h; for fold induction at 1 µM: compound concentration 1 uM; for fold induction at 50 µM: compound concentration 50 uM
Protocol: A human neuroblastoma IMR32 cell line (ATCC) with stably PANK2 silencing was obtained by lentiviral-delivered small hairpin RNA and cultured in MEM (Invitrogen) supplemented with 10% fetal bovine serum, 2 mM glutamine, 1% penicillin-streptomycin, 1 mM sodium pyruvate, 1 mM non-essential amino acids, and 1.5 g/l sodium bicarbonate.
A non-silencing shRNA construct (scrambled shRNA) and an empty vector expressing GFP alone were used as negative controls. The GFP tag subcloned into the lentiviral vectors was used to monitor the transfection efficiency.
Three days after transduction medium was removed and replaced with fresh medium containing […] puromycin. […] The level of PANK2 expression in selected clones was assessed by Western Blot analysis.
To quantify CoA, PANK2−/− IMR32 cells were plated on 12-well culture plates (Corning) at a density of 0.2×10^6 cells per well. […] Controls with medium containing 0.1% DMSO without test compounds were also included in each plate. […] Before LC-MS analysis of CoA levels, cells were harvested, counted, and collected in a 15 ml falcon tube and centrifuged at 200×g for 5 min at 4° C. Supernatant was removed and cell pellet was washed in 10 ml of ice-cold PBS. To further confirm that the numbers of cells in each sample were equivalent, an equal fraction of pellet was collected from each sample and subjected to protein determination analysis. After centrifugation and supernatant removal, the cell pellet was rapidly frozen in Liquid Nitrogen and stored at −80° C. until analysis.
Intracellular CoA levels were calculated considering an intracellular volume of 1 million cells=2 μl.
The 1*10^6 cellular pellet was extracted with 120 μl of aqueous 20% TFA.
100 μL samples of supernatant were dried under N2 at 20° C. in the dark.
Samples were re-dissolved in 100 μl of 10 mM NH4^+ AcO^− buffer pH 5.1+IS (Dextrorphan 50 ng/ml), stirred for 2 min, sonicated in ultrasonic bath for 1 min, then stirred again for 1 min, and injected into LC-MS.
LC-MS/MS was performed using an Agilent HPLC (1100 Series, USA). The LC system was interfaced with an API-4000 Q-Trap triple quadrupole mass spectrometer (AB Sciex, Toronto, Canada) equipped with a TurboIonSpray ionization source operating in positive ion mode. Analyst™ software version 1.6 (AB Sciex, Toronto, Canada) was used for data acquisition and processing. CoA was separated using a Luna C18 column (2.0×50 mm; 5 μm particle size), column at 25° C. and flow rate of 0.2 ml/min. Injection volume was 15 μl. The mobile phases consisted of water containing 10 mM ammonium acetate pH 7 (mobile phase A) and MeCN-2-propanol 9:1 (mobile phase B).
Results are expressed as fold increase in CoA levels relative to controls (using LC-MS quantification of free CoA).

SMILES: CC(=O)SCCNC(=O)CCNC(=O)[C@@H]1O[P@@](=O)(OCOC(=O)c2cc(C(C)(C)C)nn2C)OCC1(C)C [R1045, (((2S,4R)-4-((3-((2-(acetylthio)ethyl)amino)-3-oxopropyl)carbamoyl)-5,5-dimethyl-2-oxido-1,3,2-dioxaphosphinan-2-yl)oxy)methyl 3-(tert-butyl)-1-methyl-1H-pyrazole-5-carboxylate]
- fold induction at 1 µM (Homo sapiens, IMR-32): 2.3

SMILES: CC(=O)SCCNC(=O)CCNC(=O)[C@@H]1OP(=O)(OCOC(=O)c2ccccc2)OCC1(C)C (stereo partly drawn) [R1009, (((4R)-4-((3-((2-(acetylthio)ethyl)amino)-3-oxopropyl)carbamoyl)-5,5-dimethyl-2-oxido-1,3,2-dioxaphosphinan-2-yl)oxy)methyl benzoate]
- fold induction at 1 µM (Homo sapiens, IMR-32): 69.5

SMILES: COc1cccc(C(=O)OCOP2(=O)OCC(C)(C)[C@H](C(=O)NCCC(=O)NCCSC(C)=O)O2)c1 (stereo partly drawn) [R1038, (((4R)-4-((3-((2-(acetylthio)ethyl)amino)-3-oxopropyl)carbamoyl)-5,5-dimethyl-2-oxido-1,3,2-dioxaphosphinan-2-yl)oxy)methyl 3-methoxybenzoate]
- fold induction at 1 µM (Homo sapiens, IMR-32): 26.2

SMILES: CC(=O)SCCNC(=O)CCNC(=O)[C@@H]1OP(=O)(OCOC(=O)c2ccc(Cl)cc2)OCC1(C)C (stereo partly drawn) [R1033, (((4R)-4-((3-((2-(acetylthio)ethyl)amino)-3-oxopropyl)carbamoyl)-5,5-dimethyl-2-oxido-1,3,2-dioxaphosphinan-2-yl)oxy)methyl 4-chlorobenzoate]
- fold induction at 1 µM (Homo sapiens, IMR-32): 25.8

SMILES: CC(=O)SCCNC(=O)CCNC(=O)[C@@H]1OP(=O)(OCOC(=O)c2cccc(C)c2)OCC1(C)C (stereo partly drawn) [R1039, (((4R)-4-((3-((2-(acetylthio)ethyl)amino)-3-oxopropyl)carbamoyl)-5,5-dimethyl-2-oxido-1,3,2-dioxaphosphinan-2-yl)oxy)methyl 3-methylbenzoate]
- fold induction at 1 µM (Homo sapiens, IMR-32): 27.4

SMILES: CC(=O)SCCNC(=O)CCNC(=O)[C@@H]1OP(=O)(OCOC(=O)c2ccc(C)cc2)OCC1(C)C (stereo partly drawn) [R1036, (((4R)-4-((3-((2-(acetylthio)ethyl)amino)-3-oxopropyl)carbamoyl)-5,5-dimethyl-2-oxido-1,3,2-dioxaphosphinan-2-yl)oxy)methyl 4-methylbenzoate]
- fold induction at 1 µM (Homo sapiens, IMR-32): 52.2

SMILES: CC(=O)SCCNC(=O)CCNC(=O)[C@@H]1OP(=O)(OCOC(=O)NC(C)(C)COC(=O)C(C)(C)C)OCC1(C)C (stereo partly drawn) [R1028, 2-((((((4R)-4-((3-((2-(acetylthio)ethyl)amino)-3-oxopropyl)carbamoyl)-5,5-dimethyl-2-oxido-1,3,2-dioxaphosphinan-2-yl)oxy)methoxy)carbonyl)amino)-2-methylpropyl pivalate]
- fold induction at 50 µM (Homo sapiens, IMR-32): 5.7

SMILES: COC(=O)[C@H](C)N[P@]1(=O)OCC(C)(C)[C@H](C(=O)NCCC(=O)NCCSC(C)=O)O1 [R1004, methyl ((2S,4R)-4-((3-((2-(acetylthio)ethyl)amino)-3-oxopropyl)carbamoyl)-5,5-dimethyl-2-oxido-1,3,2-dioxaphosphinan-2-yl)-L-alaninate]
- fold induction at 50 µM (Homo sapiens, IMR-32): 2.1

SMILES: CC(=O)SCCNC(=O)CCNC(=O)[C@@H]1OP(=O)(OCOC(=O)c2cc(C(C)(C)C)nn2C)OCC1(C)C (stereo partly drawn) [R1010, (((4R)-4-((3-((2-(acetylthio)ethyl)amino)-3-oxopropyl)carbamoyl)-5,5-dimethyl-2-oxido-1,3,2-dioxaphosphinan-2-yl)oxy)methyl 3-(tert-butyl)-1-methyl-1H-pyrazole-5-carboxylate]
- fold induction at 1 µM (Homo sapiens, IMR-32): 200

SMILES: CC(=O)SCCNC(=O)CCNC(=O)[C@@H]1O[P@@](=O)(Oc2ccccc2)OCC1(C)C [R1041, S-(2-(3-((2S,4R)-5,5-dimethyl-2-oxido-2-phenoxy-1,3,2-dioxaphosphinane-4-carboxamido)propanamido)ethyl) ethanethioate]
- PANK2−/− CoA Fold increase (compound concentration 10 uM): 1.8 fold

SMILES: COC(=O)[C@@H](NP1(=O)OCC(C)(C)[C@H](C(=O)NCCC(=O)NCCSC(C)=O)O1)C(C)C (stereo partly drawn) [R1026, methyl ((4R)-4-((3-((2-(acetylthio)ethyl)amino)-3-oxopropyl)carbamoyl)-5,5-dimethyl-2-oxido-1,3,2-dioxaphosphinan-2-yl)-L-valinate]
- fold induction at 50 µM (Homo sapiens, IMR-32): 2.5

SMILES: CC(=O)SCCNC(=O)CCNC(=O)[C@@H]1O[P@@](=O)(OCOC(=O)OC(C)C)OCC1(C)C [R1017, S-(2-(3-((2S,4R)-2-(((isopropoxycarbonyl)oxy)methoxy)-5,5-dimethyl-2-oxido-1,3,2-dioxaphosphinane-4-carboxamido)propanamido)ethyl) ethanethioate]
- fold induction at 1 µM (Homo sapiens, IMR-32): 18.4

SMILES: CC(=O)SCCNC(=O)CCNC(=O)[C@@H]1OP(=O)(OCOC(=O)c2cccc(Cl)c2)OCC1(C)C (stereo partly drawn) [R1034, (((4R)-4-((3-((2-(acetylthio)ethyl)amino)-3-oxopropyl)carbamoyl)-5,5-dimethyl-2-oxido-1,3,2-dioxaphosphinan-2-yl)oxy)methyl 3-chlorobenzoate]
- fold induction at 1 µM (Homo sapiens, IMR-32): 29.6

SMILES: CC(=O)OCC(C)(C)NC(=O)OCOP1(=O)OCC(C)(C)[C@H](C(=O)NCCC(=O)NCCSC(C)=O)O1 (stereo partly drawn) [R1027, 2-((((((4R)-4-((3-((2-(acetylthio)ethyl)amino)-3-oxopropyl)carbamoyl)-5,5-dimethyl-2-oxido-1,3,2-dioxaphosphinan-2-yl)oxy)methoxy)carbonyl)amino)-2-methylpropyl acetate]
- fold induction at 50 µM (Homo sapiens, IMR-32): 2.8

SMILES: CC(=O)SCCNC(=O)CCNC(=O)[C@@H]1OP(=O)(OCOC(=O)c2ccc(C(F)(F)F)cn2)OCC1(C)C (stereo partly drawn) [R1040, (((4R)-4-((3-((2-(acetylthio)ethyl)amino)-3-oxopropyl)carbamoyl)-5,5-dimethyl-2-oxido-1,3,2-dioxaphosphinan-2-yl)oxy)methyl 5-(trifluoromethyl)picolinate]
- fold induction at 50 µM (Homo sapiens, IMR-32): 4.5

SMILES: CC(=O)SCCNC(=O)CCNC(=O)[C@@H]1O[P@](=O)(Oc2ccccc2)OCC1(C)C [R1042, S-(2-(3-((2R,4R)-5,5-dimethyl-2-oxido-2-phenoxy-1,3,2-dioxaphosphinane-4-carboxamido)propanamido)ethyl) ethanethioate]
- PANK2−/− CoA Fold increase (compound concentration 10 uM): 1.0 fold

SMILES: CC(=O)SCCNC(=O)CCNC(=O)[C@@H]1OP(=O)(OCOC(=O)NCCOC(=O)[C@@H](N)C(C)C)OCC1(C)C (stereo partly drawn) [R1032, 2-((((((4R)-4-((3-((2-(acetylthio)ethyl)amino)-3-oxopropyl)carbamoyl)-5,5-dimethyl-2-oxido-1,3,2-dioxaphosphinan-2-yl)oxy)methoxy)carbonyl)amino)ethyl L-valinate]
- fold induction at 50 µM (Homo sapiens, IMR-32): 1

SMILES: CC(=O)SCCNC(=O)CCNC(=O)[C@@H]1OP(=O)(OCOC(=O)C(C)C)OCC1(C)C (stereo partly drawn) [R1024, (((4R)-4-((3-((2-(acetylthio)ethyl)amino)-3-oxopropyl)carbamoyl)-5,5-dimethyl-2-oxido-1,3,2-dioxaphosphinan-2-yl)oxy)methyl isobutyrate]
- fold induction at 1 µM (Homo sapiens, IMR-32): 1.4

SMILES: CC(=O)SCCNC(=O)CCNC(=O)[C@@H]1OP(=O)(OCOC(=O)c2ccc(C(F)(F)F)cc2)OCC1(C)C (stereo partly drawn) [R1037, (((4R)-4-((3-((2-(acetylthio)ethyl)amino)-3-oxopropyl)carbamoyl)-5,5-dimethyl-2-oxido-1,3,2-dioxaphosphinan-2-yl)oxy)methyl 4-(trifluoromethyl)benzoate]
- fold induction at 1 µM (Homo sapiens, IMR-32): 30.1

SMILES: CC(=O)SCCNC(=O)CCNC(=O)[C@@H]1OP(=O)(Oc2ccccc2)OCC1(C)C (stereo partly drawn) [R1043, S-(2-(3-((4R)-5,5-dimethyl-2-oxido-2-phenoxy-1,3,2-dioxaphosphinane-4-carboxamido)propanamido)ethyl) ethanethioate]
- PANK2−/− CoA Fold increase (compound concentration 10 uM): 1.1 fold

SMILES: CC(=O)SCCNC(=O)CCNC(=O)[C@@H]1OP(=O)(OCOC(=O)N[C@@H](CSC(=O)C(C)(C)C)C(=O)OCc2ccccc2)OCC1(C)C (stereo partly drawn) [R1029, benzyl N-(((((4R)-4-((3-((2-(acetylthio)ethyl)amino)-3-oxopropyl)carbamoyl)-5,5-dimethyl-2-oxido-1,3,2-dioxaphosphinan-2-yl)oxy)methoxy)carbonyl)-S-pivaloyl-L-cysteinate]
- fold induction at 50 µM (Homo sapiens, IMR-32): 120

SMILES: CC(=O)OCCNC(=O)OCOP1(=O)OCC(C)(C)[C@H](C(=O)NCCC(=O)NCCSC(C)=O)O1 (stereo partly drawn) [R1025, 2-((((((4R)-4-((3-((2-(acetylthio)ethyl)amino)-3-oxopropyl)carbamoyl)-5,5-dimethyl-2-oxido-1,3,2-dioxaphosphinan-2-yl)oxy)methoxy)carbonyl)amino)ethyl acetate]
- fold induction at 10 µM (Homo sapiens, IMR-32, compound concentration 10 uM): 1.4
